Bounds are passed on as bounds.

What is called IC50 is the concentration needed to halve the response being measured.

The assay deals with CSF1R (Homo sapiens (Human), UniProt P07333). In words: CSF1R enzymatic inhibitory assay (Invitrogen Z'-LYTE, FRET).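 Further: kinase phosphorylates a tyrosine on a coumarin/fluorescein FRET peptide, a protease cuts peptide left unphosphorylated, inhibition quantified from the donor-to-acceptor emission ratio with excitation at 400 nm.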 Conditions: Z'-LYTE assay, ATP concentration equal to Km, average of at least 2 titration curves; read-out: CSF1R (IC50). It is filed as biochemical.
Sequence of CSF1R (P07333 20-972): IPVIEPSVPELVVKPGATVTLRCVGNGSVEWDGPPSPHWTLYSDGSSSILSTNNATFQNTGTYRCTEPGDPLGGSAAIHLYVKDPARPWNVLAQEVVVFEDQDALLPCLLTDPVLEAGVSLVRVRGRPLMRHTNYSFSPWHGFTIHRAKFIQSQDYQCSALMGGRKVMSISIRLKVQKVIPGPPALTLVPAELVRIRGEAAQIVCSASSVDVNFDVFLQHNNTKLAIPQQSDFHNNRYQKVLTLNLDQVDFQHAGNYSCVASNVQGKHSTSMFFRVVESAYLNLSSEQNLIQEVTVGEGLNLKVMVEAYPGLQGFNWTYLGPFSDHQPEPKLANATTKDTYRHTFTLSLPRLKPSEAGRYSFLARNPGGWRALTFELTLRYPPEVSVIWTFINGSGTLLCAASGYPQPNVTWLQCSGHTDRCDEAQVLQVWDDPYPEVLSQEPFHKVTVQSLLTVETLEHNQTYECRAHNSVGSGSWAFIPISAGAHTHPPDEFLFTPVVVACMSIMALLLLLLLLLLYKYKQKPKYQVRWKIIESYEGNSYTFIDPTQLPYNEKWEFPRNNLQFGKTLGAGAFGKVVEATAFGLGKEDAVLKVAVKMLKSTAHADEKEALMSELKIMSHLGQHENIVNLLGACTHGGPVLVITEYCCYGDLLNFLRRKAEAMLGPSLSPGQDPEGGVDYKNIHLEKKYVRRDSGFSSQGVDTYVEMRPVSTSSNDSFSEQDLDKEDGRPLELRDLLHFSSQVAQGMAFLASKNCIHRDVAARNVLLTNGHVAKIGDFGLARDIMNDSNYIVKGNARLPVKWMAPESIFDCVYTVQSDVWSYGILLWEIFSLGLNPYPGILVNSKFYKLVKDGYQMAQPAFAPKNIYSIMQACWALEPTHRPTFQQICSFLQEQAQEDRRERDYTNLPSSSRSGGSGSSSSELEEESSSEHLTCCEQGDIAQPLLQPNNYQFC

`CN(Cc1ccccc1)c1ncnc2[nH]ccc12` [TIA04-067, N-Benzyl-N-methyl-7H-pyrrolo[2,3-d]pyrimidin-4-amine]: the concentration for half-maximal inhibition (IC50) came to 68 ± 2 nM.

Turning to `C[C@H](c1ccccc1)N(C)c1ncnc2[nH]c(-c3ccccc3)cc12` [KUL01-093, (R)—N-Methyl-6-phenyl-N-(1-phenylethyl)-7H-pyrrolo[2,3-d]pyrimidin-4-amine], the concentration for half-maximal inhibition (IC50) worked out at 54 ± 5 nM.

Regarding `CN(CC1CCCCC1)c1ncnc2[nH]c(C3=CCCCC3)nc12` [TIA03-186, 8-(Cyclohex-1-en-1-yl)-N-(cyclohexylmethyl)-N-methyl-9H-purin-6-amine], the concentration for half-maximal inhibition (IC50) was 0.7 ± 0.2 nM.

`COc1cccc(CN(C)c2ncnc3[nH]c(-c4ccc(CO)cc4)nc23)c1` [TIA03-014, N-(3-Methoxybenzyl)-N-methyl-8-(4-(hydroxymethyl)phenyl)-9H-purin-6-amine]: the IC50 was found to be 2.7 ± 0.1 nM.

Take `COc1ccc(-c2cc3c(NCc4ccccc4)ncnc3[nH]2)cc1` [JK-356, N-Benzyl-6-(4-methoxyphenyl)-7H-pyrrolo[2,3-d]pyrimidin-4-amine]: the IC50 is 6.2 ± 0.4 nM.

Take `COc1ccc(-c2cc3c(N4CCCC4)ncnc3[nH]2)cc1` [MS-46-93, 6-(4-Methoxyphenyl)-4-(pyrrolidin-1-yl)-7H-pyrrolo[2,3-d]pyrimidine]: the half-maximal inhibitory concentration (IC50) came to 1.1 ± 0.1 nM.

As to `OC1(c2ccc(-c3cc4c(N5CCCC5C5CCOCC5)ncnc4[nH]3)cc2)COC1` (stereo not drawn) [LR-2-067], the half-inhibitory concentration (IC50) came out at 3 nM.

Consider `CN(Cc1c(F)cccc1F)c1ncnc2[nH]c(-c3ccccc3)cc12` [SH-01-127, N-(2,6-Difluorobenzyl)-N-methyl-6-phenyl-7H-pyrrolo[2,3-d]pyrimidin-4-amine], for which the IC50 is 9.2 ± 3.3 nM.

In the case of `Cc1cccc(CN(C)c2ncnc3[nH]c(-c4ccc(P(C)(C)=O)cc4)cc23)c1` [LR-2-116, Dimethyl(4-(4-(methyl(3-methylbenzyl)amino)-7H-pyrrolo[2,3-d]pyrimidin-6-yl)phenyl)phosphine oxide], the IC50 was less than 0.2 nM.

Take `CCN(Cc1ccccc1)c1ncnc2[nH]c(-c3ccc(OC)cc3)nc12` [EH-93, N-Benzyl-N-ethyl-8-(4-methoxyphenyl)-9H-purin-6-amine]: the IC50 was more than 50 nM.

Consider `CN(Cc1ccccc1)c1ncnc2[nH]cnc12` [TIA008, N-Benzyl-N-methyl-9H-purin-6-amine], for which the 50% inhibitory concentration (IC50) came to 108 ± 7 nM.

For the compound `CN(Cc1ccccc1F)c1ncnc2[nH]c(-c3ccc(CO)cc3)nc12` [TIA02-130, N-Methyl-N-(2-fluorobenzyl)-8-(4-(hydroxymethyl)phenyl)-9H-purin-6-amine], the 50% inhibitory concentration (IC50) was 2.3 ± 0.2 nM.

As for `CN(Cc1cccnc1)c1ncnc2[nH]c(-c3ccc(CO)cc3)nc12` [TIA03-016, N-Methyl-N-(pyridin-3-ylmethyl)-8-(4-(hydroxymethyl)phenyl)-9H-purin-6-amine], the IC50 turned out to be 3.8 ± 0.4 nM.

Consider `CN(Cc1ccccc1)c1ncnc2[nH]c(-c3ccccc3)nc12` [TIA072, N-Benzyl-N-methyl-8-phenyl-9H-purin-6-amine], for which the concentration for half-maximal inhibition (IC50) came to 0.7 ± 0.1 nM.

Consider `OCC(O)(CO)c1ccc(-c2cc3c(N4CCCC4C4CCOCC4)ncnc3[nH]2)cc1` (stereo not drawn) [LR-2-052-2], for which the IC50 amounted to 3 nM.

Consider `CC(C)N(Cc1ccccc1)c1ncnc2[nH]c(-c3ccc(CO)cc3)nc12` [EH02-21, (4-(6-(Benzyl(isopropyl)amino)-9H-purin-8-yl)phenyl)methanol], for which the half-maximal inhibitory concentration (IC50) is more than 1000 nM.

As for `Cc1ccccc1CN(C)c1ncnc2[nH]c(-c3ccc(CO)cc3)nc12` [TIA03-136, N-Methyl-N-(2-methylbenzyl)-8-(4-(hydroxymethyl)phenyl)-9H-purin-6-amine], the half-maximal inhibitory concentration (IC50) turned out to be 1.8 nM.

On to `OCc1ccc(-c2cc3c(N4CCCC4c4ccccc4)ncnc3[nH]2)cc1` (stereo not drawn) [TIA05-178, (4-(4-(2-Phenylpyrrolidin-1-yl)-7H-pyrrolo[2,3-d]pyrimidin-6-yl)phenyl)methanol], for which the half-maximal inhibitory concentration (IC50) is 0.7 ± 0.1 nM.

With `CN(Cc1cccs1)c1ncnc2[nH]c(-c3ccc(CO)cc3)nc12` [TIA03-066, N-Methyl-N-(thiophen-2-ylmethyl)-8-(4-(hydroxymethyl)phenyl)-9H-purin-6-amine], the IC50 came out at 3 ± 0.6 nM.

Take `OCc1ccc(-c2nc3c(NCc4ccccc4)ncnc3[nH]2)cc1` [TIA098, (4-(6-(Benzylamino)-9H-purin-8-yl)phenyl)methanol]: the IC50 was 43 ± 6 nM.

Turning to `CN(Cc1ccccc1)c1ncnc2sc(-c3ccc(CO)cc3)cc12` [BAHO-3-107, (4-(4-(Benzyl(methyl)amino)thieno[2,3-d]pyrimidin-6-yl)phenyl)methanol], the IC50 amounted to 707 ± 79 nM.

As to `CN(Cc1cccc(F)c1)c1ncnc2[nH]c(-c3ccc(CO)cc3)nc12` [TIA02-132, N-Methyl-N-(3-fluorobenzyl)-8-(4-(hydroxymethyl)phenyl)-9H-purin-6-amine], the IC50 amounted to 3.5 ± 2.2 nM.

For the compound `CN(Cc1cccc(Cl)c1)c1ncnc2[nH]c(-c3ccc(CN4CCOCC4)cc3)cc12` [LR-2-088 (3), N-(3-Chlorobenzyl)-N-methyl-6-(4-(morpholinomethyl)phenyl)-7H-pyrrolo[2,3-d]pyrimidin-4-amine], the IC50 worked out at 0.9 ± 0.9 nM.

As to `CN(Cc1ccccn1)c1ncnc2[nH]c(-c3ccc(CO)cc3)nc12` [TIA02-164, N-Methyl-N-(pyridin-2-ylmethyl)-8-(4-(hydroxymethyl)phenyl)-9H-purin-6-amine], the IC50 came out at 11 ± 3 nM.

For `CN(Cc1ccccc1)c1ncnc2[nH]c(-c3ccccc3O)nc12` [TIA073, 2-(6-(Benzyl(methyl)amino)-9H-purin-8-yl)phenol], the concentration for half-maximal inhibition (IC50) was 3.4 ± 0.2 nM.

Turning to `Cc1cccc(CN(C)c2ncnc3[nH]c(-c4ccc(C5(O)COC5)cc4)cc23)c1` [LR-2-060-1, 3-(4-(4-(Methyl(3-methylbenzyl)amino)-7H-pyrrolo[2,3-d]pyrimidin-6-yl)phenyl)oxetan-3-ol], the IC50 was determined as 0.3 nM.

Regarding `Cc1cccc(CN(C)c2ccnc3[nH]ccc23)c1` [CJ1_78], the IC50 was more than 500 nM.

With `CN(Cc1cccc(C(F)(F)F)c1)c1ncnc2[nH]c(-c3ccc(CO)cc3)nc12` [TIA03-108, N-Methyl-N-(3-trifluoromethylbenzyl)-8-(4-(hydroxymethyl)phenyl)-9H-purin-6-amine], the IC50 worked out at 11 ± 2 nM.

With `CN(Cc1cccnc1)c1ncnc2[nH]c(-c3ccccc3)nc12` [TIA109, N-Methyl-8-phenyl-N-(pyridin-3-ylmethyl)-9H-purin-6-amine], the IC50 came to 2.2 nM.

With `CN(Cc1ccccc1Cl)c1ncnc2[nH]c(-c3ccc(CN4CCOCC4)cc3)cc12` [LR-2-091 (2), N-(2-Chlorobenzyl)-N-methyl-6-(4-(morpholinomethyl)phenyl)-7H-pyrrolo[2,3-d]pyrimidin-4-amine], the IC50 is 1.4 ± 0.2 nM.

For `CN(Cc1cc(Cl)ccc1Cl)c1ncnc2[nH]c(-c3ccc(CN4CCOCC4)cc3)cc12` [LR-2-123, N-(2,5-Dichlorobenzyl)-N-methyl-6-(4-(morpholinomethyl)phenyl)-7H-pyrrolo[2,3-d]pyrimidin-4-amine], the 50% inhibitory concentration (IC50) came out at 2.7 ± 0.4 nM.

As for `Cc1cccc(CN(C)c2ncnc3[nH]c(-c4ccc(-c5nnn[nH]5)cc4)cc23)c1` [FAB 02-14, 6-(4-(1H-Tetrazol-5-yl)phenyl)-N-methyl-N-(3-methylbenzyl)-7H-pyrrolo[2,3-d]pyrimidin-4-amine], the concentration for half-maximal inhibition (IC50) was determined as 3 nM.

As to `CN(Cc1c(Cl)cccc1Cl)c1ncnc2[nH]c(-c3ccc(CN4CCOCC4)cc3)cc12` [LR-2-094 (2), N-(2,6-Dichlorobenzyl)-N-methyl-6-(4-(morpholinomethyl)phenyl)-7H-pyrrolo[2,3-d]pyrimidin-4-amine], the IC50 was determined as 8.7 ± 1.1 nM.

As to `NC1NC=Nc2[nH]c(-c3ccc(CO)cc3)cc21` (stereo not drawn) [TIA05-102], the half-inhibitory concentration (IC50) is 85 nM.

Consider `Cc1ccc(F)c(CN(C)c2ncnc3[nH]c(-c4ccccc4)cc23)c1F` [SH-01-126, N-(2,6-Difluoro-3-methylbenzyl)-N-methyl-6-phenyl-7H-pyrrolo[2,3-d]pyrimidin-4-amine], for which the concentration for half-maximal inhibition (IC50) came to 9.1 ± 1.1 nM.

`Cc1cccc(CN(C)c2ncnc3[nH]c(-c4cnn(C(C)C)c4)cc23)c1` [LR-2-108, 6-(1-Isopropyl-1H-pyrazol-4-yl)-N-methyl-N-(3-methylbenzyl)-7H-pyrrolo[2,3-d]pyrimidin-4-amine]: the IC50 was found to be 0.4 ± 0.3 nM.

As to `Cc1cccc(CN(C)c2ncnc3[nH]c(-c4ccc(C(O)(CO)CO)cc4)cc23)c1` [LR-2-060-2, 2-(4-(4-(Methyl(3-methylbenzyl)amino)-7H-pyrrolo[2,3-d]pyrimidin-6-yl)phenyl)propane-1,2,3-triol], the IC50 was 3 nM.

`CN(CC1CCN(Cc2ccccc2)CC1)c1ncnc2[nH]c(-c3ccc(CO)cc3)nc12` [TIA04-053, N-Methyl-N-(1-benzylpiperidin-4-ylmethyl)-8-(4-(hydroxymethyl)phenyl)-9H-purin-6-amine]: the IC50 amounted to 130 ± 12 nM.

On to `CCOc1ccccc1-c1nc2c(N(C)Cc3ccccc3)ncnc2[nH]1` [JKS01-057, N-Benzyl-8-(2-ethoxyphenyl)-N-methyl-9H-purin-6-amine], for which the 50% inhibitory concentration (IC50) was more than 1000 nM.

In the case of `Cc1cccc(CN(C)c2ncnc3[nH]ccc23)c1` [TIA04-069, N-Methyl-N-(3-methylbenzyl)-7H-pyrrolo[2,3-d]pyrimidin-4-amine], the concentration for half-maximal inhibition (IC50) was found to be 35 nM.

Consider `Oc1ccc(-c2cc3c(NCc4ccccc4)ncnc3[nH]2)cc1` [JK-367, 4-(4-(Benzylamino)-7H-pyrrolo[2,3-d]pyrimidin-6-yl)phenol], for which the IC50 is more than 200 nM.

Regarding `COc1ccc(-c2cc3c(N4CCCC4C)ncnc3[nH]2)cc1` (stereo not drawn) [MS1-60-134, 6-(4-Methoxyphenyl)-4-(2-methylpyrrolidin-1-yl)-7H-pyrrolo[2,3-d]pyrimidine], the IC50 came to 0.7 ± 0.1 nM.

Turning to `COc1ccc(CN(C)c2ncnc3[nH]c(-c4ccc(CO)cc4)nc23)cc1OC` [TIA03-080, N-(3,4-Dimethoxybenzyl)-N-methyl-8-(4-(hydroxymethyl)phenyl)-9H-purin-6-amine], the 50% inhibitory concentration (IC50) was determined as 5.7 ± 0.3 nM.

As to `Cc1ccc(CN(C)c2ncnc3[nH]c(-c4ccc(CO)cc4)nc23)cc1` [TIA02-174, N-Methyl-N-(4-methylbenzyl)-8-(4-(hydroxymethyl)phenyl)-9H-purin-6-amine], the concentration for half-maximal inhibition (IC50) was 12 ± 1 nM.

For `c1ccc(CNc2ncnc3[nH]c(-c4ccccc4)nc23)cc1` [TIA099, N-Benzyl-8-phenyl-9H-purin-6-amine], the IC50 was found to be 85 ± 10 nM.
